Source: patent US6645983B1, “Pharmaceutical compositions comprising 4-quinolones for treating cancers” (Laboratoire L. Lafon, priority 1999, dated 2003)

Assays:
[1] = system: SW1088; test: MTT test, cytotoxic activity on non-clonogenic cell lines; assay type: cell-based; conditions: Homo sapiens, 10^−5 M, 72 hours of incubation, control condition = 100%, mean value, read-out: mean optical density as percentage of control, SW1088
Experimental: (§1) The principle of the MTT test is based on the mitochondrial reduction, by the metabolically active live cells, of the yellow-colored product MTT (3-(4,5-dimethylthiazol-2-yl)-2,5-diphenyltetrazolium bromide) to a blue-colored product, formazan. The amount of formazan thus obtained is directly proportional to the amount of live cells present in the culture well(s). This amount of formazan is measured by spectrophotometry.
(§2) The cell lines are maintained as a monolayer culture at 37° C. in stoppered culture dishes containing MEM 25 MM HEPES (Minimum Essential Medium) base medium. This medium is suited to the growth of a range of various mammalian diploid or primary cells. This medium is then supplemented with:
(§3) The 12 human cancer cell lines which were used were obtained from the American Type Culture Collection (ATCC, Rockville, Md., USA). These 12 cell lines are:
SW1088 (code ATCC: HTB-12) which is an astro-cytoma,
(§4) Experimentally, 100 μl of a cell suspension containing 20 000 to 50 000 (depending on the cell type used) cells/ml of culture medium are inoculated -in 96-well flat-bottomed multi-well plates and are left to stand in an incubator at 37° C., 5% CO2 and 70% humidity. After an incubation time of 24 hours, the culture medium is replaced with 100 μl of fresh medium containing either the various test compounds—at concentrations varying from 10^−5 to 10^−10 M—or the solvent having served for dissolving the products to be tested (control condition). […] The microplates are thus incubated for 3 hours at 37° C., then centrifuged for 10 minutes at 400 g. The yellowish solution of MTT is removed and the blue formazan crystals formed in the cell region are dissolved in 100 μl or DMSO. The microplates are then shaken for 5 minutes. […] Software incorporated in the spectrophotometer calculates the average optical density values and the standard deviation (SD) and standard error of mean (SEM) values.

[2] = system: LoVo; test: as above; assay type: cell-based; conditions: Homo sapiens, 10^−5 M, 72 hours of incubation, control condition = 100%, mean value, read-out: mean optical density as percentage of control, LoVo
Experimental: as §1, §2, §3, §4

[3] = system: T-47D; test: as above; assay type: cell-based; conditions: Homo sapiens, T47D; 10^−5 M, 72 hours of incubation, control condition = 100%, mean value; read-out: mean optical density as percentage of control, T-47D
Experimental: as §1, §2, §3, §4

[4] = system: A-427; test: as above; assay type: cell-based; conditions: Homo sapiens, 10^−5 M, 72 hours of incubation, control condition = 100%, mean value, read-out: mean optical density as percentage of control, A-427
Experimental: as §1, §2, §3, §4

[5] = system: MCF7; test: as above; assay type: cell-based; conditions: Homo sapiens, 10^−5 M, 72 hours of incubation, control condition = 100%, mean value, read-out: mean optical density as percentage of control, MCF7
Experimental: as §1, §2, §3, §4

[6] = system: A549; test: as above; assay type: cell-based; conditions: Homo sapiens, 10^−5 M, 72 hours of incubation, control condition = 100%, mean value, read-out: mean optical density as percentage of control, A549
Experimental: as §1, §2, §3, §4

[7] = system: U-87MG; test: as above; assay type: cell-based; conditions: Homo sapiens, U-87 MG; 10^−5 M, 72 hours of incubation, control condition = 100%, mean value; read-out: mean optical density as percentage of control, U-87MG
Experimental: as §1, §2, §3, §4

[8] = system: U-373MG; test: as above; assay type: cell-based; conditions: Homo sapiens, U373 MG; 10^−5 M, 72 hours of incubation, control condition = 100%, mean value; read-out: mean optical density as percentage of control, U-373MG
Experimental: as §1, §2, §3, §4

[9] = system: HCT-15; test: as above; assay type: cell-based; conditions: Homo sapiens, 10^−5 M, 72 hours of incubation, control condition = 100%, mean value, read-out: mean optical density as percentage of control, HCT-16
Experimental: as §1, §2, §3, §4

[10] = system: PC-3; test: as above; assay type: cell-based; conditions: Homo sapiens, 10^−5 M, 72 hours of incubation, control condition = 100%, mean value, read-out: mean optical density as percentage of control, PC-3
Experimental: as §1, §2, §3, §4

[11] = system: T24; test: as above; assay type: cell-based; conditions: Homo sapiens, T-24; 10^−5 M, 72 hours of incubation, control condition = 100%, mean value; read-out: mean optical density as percentage of control, T24
Experimental: as §1, §2, §3
(§5) J82 (code ATCC: HTB-1) and T24 (code ATCC: HTB-4) which are two bladder cancers,
as §4

[12] = system: J82; test: as above; assay type: cell-based; conditions: Homo sapiens, 10^−5 M, 72 hours of incubation, control condition = 100%, mean value, read-out: mean optical density as percentage of control, J82
Experimental: as §1, §2, §3, §5, §4

[13] = Determination of the maximum tolerated dose (MTD); conditions: B6D2F1/Jico, mouse, in vivo, ip; single intraperitoneal administration, doses 2.5 to 160 mg/kg, survival over 14 days
Experimental: The evaluation of the maximum tolerated dose was performed on 4- to 6-week-old B6D2F1/Jico mice. The compounds were administered intraperitoneally at increasing doses ranging from 2.5 to 160 mg/kg. The value of the MTD (expressed in mg/kg) is determined from the observation of the survival rate of the animals over a 14-day period after a single administration of the product under consideration. The change in weight of the animals is also monitored during this period. When the MTD value is greater than 160 mg/kg, the MTD value is considered as being 160 mg/kg by default.

Row | SMILES | viability at 10 µM [1] | viability at 10 µM [2] | viability at 10 µM [3] | viability at 10 µM [4] | viability at 10 µM [5] | viability at 10 µM [6] | viability at 10 µM [7] | viability at 10 µM [8] | viability at 10 µM [9] | viability at 10 µM [10] | viability at 10 µM [11] | viability at 10 µM [12] | MTD at 14 day [13]
1 | CCN(CC)C(=O)Cn1cc(-c2ccc(OC)cc2)c(=O)c2c(OC)ccc(OC)c21 [CRL8380, N,N-Diethyl-2-[5,8-dimethoxy-3-(4-methoxyphenyl)-4-oxo-1,4-dihydro-1-quinolinyl]acetamide] | 100% | 108% | 88.1% | 89.3% | 102% | 95% | 87.5% | 101% | 103% | 102% | 94.9% | 98.9% | > 160 mg/kg
2 | CCOC(=O)Cn1cc(-c2ccc(OC)cc2)c(=O)c2c(OC)ccc(OC)c21 [CRL8381, Ethyl 2-[5,8-dimethoxy-3-(4-methoxyphenyl)-4-oxo-1,4-dihydro-1-quinolinyl]acetate] | 55.9% | 105% | 92.6% | 84.2% | 67.2% | 73.8% | 48.1% | 91.8% | 90.5% | 79.1% | 83.2% | 90.9% | > 160 mg/kg
3 | COc1ccc(-c2cn(CCN(C)C)c3c(OC)ccc(OC)c3c2=O)cc1 [CRL8382, N-[3-(Dimethylamino)ethyl]-5,8-dimethoxy-3-(4-methoxyphenyl)-1,4-dihydro-4-quinolinone] | 118% | 96.7% | 94.7% | 89.2% | 93% | 90.4% | 59.2% | 101% | 93.1% | 100% | 99.7% | 95.6% | > 160 mg/kg
4 | COc1ccc(OC)c2c1c(=O)c(-c1ccccc1)cn2C [CRL8383, 5,8-Dimethoxy-1-methyl-3-phenyl-1,4-dihydro-4-quinolinone] | 75.9% | 89.1% | 75.3% | 92.1% | 85% | 84.1% | 69.5% | 83.5% | 100% | 88.3% | 180% | 94.6% | > 160 mg/kg
5 | COc1ccc(-c2c[nH]c3c(OC)ccc(O)c3c2=O)cc1 [CRL8391, 5-Hydroxy-8-methoxy-3-(4-methoxyphenyl)-1,4-dihydro-4-quinolinone] | 92.5% | 87.2% | 99.3% | 80.5% | 97.3% | 88.3% | 74% | 93.5% | 80.6% | 80% | 101% | 99.6% | > 160 mg/kg
6 | COc1ccc(-c2cn(C)c3c(OC)ccc(O)c3c2=O)cc1 [CRL8392, 5-Hydroxy-8-methoxy-3-(4-methoxyphenyl)-1-methyl-1,4-dihydro-4-quinolinone] | 89.8% | 79.7% | 68.6% | 49.7% | 74% | 77.6% | 82.7% | 90.2% | 77.4% | 51.6% | 63% | 70.6% | > 160 mg/kg
7 | CCc1cc(OC)cc2c1c(=O)c(-c1ccc(OC)cc1)cn2C [CRL8393, 5-Ethyl-7-methoxy-3-(4-methoxyphenyl)-1-methyl-1,4-dihydro-4-quinolinone] | 82.8% | 84.6% | 68.8% | 23.7% | 89.7% | 93% | 89.9% | 74.7% | 41.8% | 87.3% | 95.3% | 97.9% | > 160 mg/kg
8 | COc1ccc(-c2cn(C)c3cc(OC)cc(-c4ccccc4)c3c2=O)cc1 [CRL8394, 7-Methoxy-3-(4-methoxyphenyl)-1-methyl-5-phenyl-1,4-dihydro-4-quinolinone] | 68.5% | 45.1% | 94.3% | 38.9% | 78% | 52.9% | 42.2% | 73.5% | 37.7% | 83.2% | 92.9% | 93.5% | > 160 mg/kg
9 | CCOC(=O)CCn1cc(-c2ccc(OC)cc2)c(=O)c2c(OC)cc(OC)cc21 [CRL8404] | 72.1% | 90.7% | 66.7% | 93.3% | 93.4% | 93.5% | 91.5% | 104% | 93.7% | 99.7% | 59.8% | 83.8% | > 160 mg/kg
10 | COc1ccc(-c2cn(C)c3c(OC)ccc(-c4ccccc4)c3c2=O)cc1 [CRL8405, 8-Methoxy-3-(4-methoxyphenyl)-1-methyl-5-phenyl-1,4-dihydro-4-quinolinone] | 40.8% | 32.3% | 77.1% | 19.4% | 68.2% | 32% | 25.8% | 28.8% | 15.9% | 85.5% | 57.8% | 93.9% | > 160 mg/kg
11 | COc1ccc(-c2cn(CCC#N)c3cc(OC)cc(OC)c3c2=O)cc1 [CRL8412, 3-[5,7-Dimethoxy-3-(4-methoxyphenyl)-4-oxo-1,4-dihydro-1-quinolinyl]propanenitrile] | 105% | 77% | 109% | 83.7% | 99.1% | 84.5% | 83.4% | 80.8% | 83.6% | 104% | 100% | 94.2% | > 160 mg/kg
